Assays:
[1] = system: 4T1 triple negative breast cancer tumors; test: Primary tumor regrowth and survival after 4T1 tumor resection (Example 4.4); type: in vivo, mice
Procedure: Six to eight weeks old female BALB/c mice (Shanghai Lingchang Bio-Technology Co. Ltd, Shanghai, China) were injected with 3×10^5 4T1 mouse tumor cells in PBS (0.1 mL/mouse) into the mammary fat pad. At the time of randomization, the TVs ranged between 69.9 and 173.9 mm3 (median 105.7, IQR=100.7-125.4). Body weights and TVs (caliper measurements) were determined 2-3 times/week. After randomization (day 9 after tumor inoculation) mice received different treatments under different dosing regimen (see Table 9 for dosing scheme). For all groups, 4 mice are sacrificed 48h after the 2nd miRNA-193a injection in the first week and in the 2nd week. Primary tumors were surgically removed from the mammary fat pad on day 20 after inoculation. After a recovery period of 3 days, treatment was resumed for 6 more weeks until day 63. Re-growth of (distant) tumors was monitored in addition to BW, and mice were sacrificed if end-points were met.

4T1 mouse tumor cells = test: Re-challenge of surviving treated mice with 4T1 cells (Example 4.4); type: in vivo
Procedure: (§1) To investigate the long-term immunity in miRNA-193a treated mice against 4T1 cells, on day 75 after inoculation, mice treated with miRNA-193a and 8 naïve (non-tumor bearing) mice were re-challenged by subcutaneous injection of 3×10^5 4T1 mouse tumor cells in PBS (0.1 mL/mouse) into the right front flank. TV and BW were monitored for 3 weeks. Then, to investigate the immunization status of miRNA-193a treated mice against other cell types, on day 101, mice treated with miRNA-193a and 8 naïve (non-tumor bearing) mice were re-challenged by subcutaneous injection of H22 (mouse liver tumor cells) cells in PBS (0.1 mL/mouse) into the right lower flank.

[2] = system: H22 (mouse liver tumor cells); test: Re-challenge of surviving treated mice with H22 cells (Example 4.4); type: in vivo
Procedure: as §1

A2058 = test: Cell motility, Boyden chamber assay; type: cell-based, human; conditions: 10 nM
Procedure: (§2) To check the migratory ability of cells, a Boyden Chamber assay was performed, which is based on a chamber of two medium-filled compartments separated by a […] pore size membrane (BD falcon). In this assay, depending on cell type 60,000-120,000 cells were seeded in the upper compartment of the membrane in serum free medium and were allowed to migrate through the pores of the membrane into the lower compartment, in which serum is present in the media. The serum acts as a chemoattractant. After an appropriate incubation time, the membrane between two compartments was fixed, stained and 6 different images from each membrane were taken. The number of migratory cells were counted using Image J analysis.
(§3) Different biological effects of miRNA-193a-3p have been tested in various cancer cell lines (see Table 13). For this, various cells were treated with miRNA-193a at different concentrations (1, 3, 10 nM). For all experiments controls (untreated, mock and scrambled) were measured. All assays were performed at 24h, 48h and 72h time points. Data shown in Table 13 are the results for miRNA-193a at 10 nM concentration at indicated time points. All the results have been quantified and normalized to the mock control.
(§4) miRNA-193a treatment in various cancer cell lines decreased cell viability over time as measured by either an MTS assay or by cell count. It enhanced apoptosis induction over time as measured by a caspase 3/7 apoptosis assay. […] It is of note that due to intrinsic characteristics and gene mutation status of each cell line, performing one method to detect apoptosis is not always ideal for all cell lines.

A549 = test: Cell motility, Boyden chamber assay; type: cell-based, human; conditions: 10 nM; A549 (first of two symbols in the cell)
Procedure: as §2, §3, §4

HeP3B, SNU449 = test: Cell motility, Boyden chamber assay; type: cell-based, human; conditions: 10 nM
Procedure: as §2, §3, §4

Huh7, H1299, and HCT116 = test: Cleaved-parp protein on western blot; type: cell-based; conditions: data not shown
Description: as §4

NT5E and ENTPD1 = NT5E and ENTPD1 expression at mRNA and protein level (RT-PCR, western blot); type: cell-based; conditions: 10 nM, variety of cell lines
Procedure: To prepare cDNA, first 100 ng total RNA was mixed with Random Hexamers (Qiagen; final concentration 2 μM) in a final volume of 12.5 μl in NFW, denatured for 5 min at 70° C. and immediately cooled on ice. Next, 7.5 μl of a cDNA synthesis mix was added, consisting of 4 μl 5×RT Buffer (Promega), 0.4 μl 25 mM dNTPs (Promega), 1 μl 200 U/μL MMLV RT-enzyme (Promega), 0.5 μL 40 U/μL RNAse Inhibitor (Promega) and 1.6 μL NFW. The following cDNA synthesis protocol was used:
Approximately 1×10^6 cells were harvested and lysed in immunoprecipitation RIPA lysis buffer and the lysates were blotted onto a PVDF membrane. Membranes were probed overnight with primary antibodies and bound antibodies were visualized using HRP-linked secondary antibodies (Cell-Signalling). The antibodies used for western blot included anti-NT5E (D7F9A) from Cell Signalling Technology, and anti-αTubulin from Santa Cruz. αTubulin was used as a loading control for the western blot experiment.
To assess the impact of miRNA-193a-3p on adenosine generation, the release of free phosphate in A2058 melanoma cells was measured as a read out for ATP, ADP, and AMP dephosphorylation in supernatants. […] Similar results were found by measuring the direct amount of adenosine in cell culture supernatants (FIG. 16B). Further, the role of miRNA-193a in A2058 cancer cell migration was investigated.

HEP3B, SNU449, A2058 = test: Cell cycle distribution by imaging of nuclei (Example 4.9); type: cell-based; conditions: 1 nM, 3 nM and 10 nM, concentration-dependent; vs mock
Procedure: Depending on cancer cell type 3000-6000 cells were seeded in a 96 well plate. After cells attached, they were transfected with different concentrations of miRNA-193a and cell cycle profile was measured at different time points. At selected time points media was aspirated from wells and DNA staining solution (Hoescht 33342/Saponin/PFA) was added to each well and incubated for 2 hours at 37° C. Then, cell images were taken using Thermo Celllnsite in which nuclei were specified and nuclei intensity were measured. Nuclei intensity was analyzed using program R to determine the different phases of the cell cycle (G0/G1, S, G2/M) based on the DNA content.
Similar phenotype has been observed in Panc1 (pancreatic cancer cell) as well as H1975 (lung cancer cell) (data not shown). […] MPP2 and STMN1 associate with cytoskeleton and therefore regulate cell division and proliferation at the G2/M phase, while YWHAZ and CCNA2 play roles in regulation of G2/M phase checkpoint by binding and sequestering the cyclin-dependent kinases.

Question: Which “Tumor re-growth after tumor excision” value ([1]; formulated in diamino lipid nanoparticles, 10 mg/kg BIW iv) does the source give for “miRNA-193a: duplex of the miRNA-193a-3p of SEQ ID NO: 218 (mimic, sense) with antisense strand SEQ ID NO: 219; naked in vitro, formulated in vivo (sense UGGGACUUUGUAGGCCAGUUTT; antisense AACUGGCCUACAAAGUCCCAGU; chemistry not given here; listed as Homo sapiens)” here?
Answer: Its value is “reduced tumor re-growth”.

Question: What about the Mouse survival ([1]; formulated in diamino nanoparticles, 10 mg/kg BIW iv) of the same substance?
Answer: The Mouse survival was “positively affected mouse survival”.

Question: And the “Mice that showed a tumor re-growth after primary tumor removal” value ([1]; primary tumor removal day 20, 10 mg/kg twice weekly for further 6 weeks)?
Answer: Its value is 1 out of 10.

Question: What about the “Treated mice that showed tumor take when re-challenged with 4T1 cells” value (4T1 mouse tumor cells; re-challenge day 75) of the same substance?
Answer: Its value is 3 mice.

Question: And the “Tumor take/growth after re-challenge with 4T1 cells” value (4T1 mouse tumor cells; re-challenge day 75, 14 days post end of treatment, vs naïve mice)?
Answer: The value was “Pronounced prevention of tumor take/growth”.

Question: And the “Tumor take after re-challenge with H22 cells” value ([2]; re-challenge day 101, 38 days post end of treatment)?
Answer: Its value is 100%.

Question: What about the “H22 tumor growth after re-challenge” value ([2]; re-challenge day 101, vs naïve mice) of the same substance?
Answer: The value was “rapid inhibition of H22 tumor growth”.

Question: What about the “Motility (18 to 24 h)” value (A2058) of the same substance?
Answer: Its value is “↓”.

Question: And the “Motility (18 to 24 h)” value (A549)?
Answer: Its value is “↓”.

Question: What about the “Motility (18 to 24 h)” value (HeP3B, SNU449) of the same substance?
Answer: The value was “↓”.

Question: What about the “Cleaved-parp protein on western blot” value (Huh7, H1299, and HCT116) of the same substance?
Answer: Its value is “enhanced cleaved-parp protein”.

Question: What about the “Expression of both enzymes involved in adenosine generation pathway (NT5E, ENTPD1)” value (NT5E and ENTPD1) of the same substance?
Answer: Its value is “downregulated the expression of both enzymes”.

Question: And the G2/M arrest (HEP3B, SNU449, A2058)?
Answer: Its G2/M arrest is “enhances the G2/M arrest”.

From patent US20210038732A1, “ANTICANCER MICRORNA AND LIPID FORMULATIONS THEREOF” (INTERNA TECHNOLOGIES B.V., priority 2018, published 2021)
